These results are taken from ChEMBL document CHEMBL1201862, “PubChem BioAssay data set” (2004).

SMILES strings stand for the structures.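 Assay format: 96-well plates, 48-hour exposure. The concentration for 50% growth inhibition is given as GI50.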 Activity calls are given as the source filed them. Rule as the data show it: active = GI50 up to about 1.1 µM and inactive = higher.

Some test systems named below: OVCAR-8; Malme-3M; HL-60; HOP-92; HCC 2998; HCT-15; UACC-257; NCI-H522; SK-MEL-28; SNB-75; RXF 393; MDA-N; COLO 205; SF-268; HT-29; PC-3; SR; SF-295; NCI-H23; SN12C.
Common to all, as to experiment: NCI tumour cell line growth inhibition, 48 h

In the case of `O=C(Oc1cccnc1)c1cc2cc(CCl)ccc2oc1=O`, the GI50 with OVCAR-8 is 33.5 µM (inactive); in the experiment with Malme-3M it was 22.7 µM (inactive); in the experiment on HL-60 it was 22.8 µM (inactive); with HOP-92, 20.6 µM (inactive); in the experiment with HCC 2998, 57.7 µM (inactive); with HCT-15 it was 23.8 µM. Besides, the GI50 in the experiment with UACC-257 was 30.6 µM (inactive); in the experiment on NCI-H522 it was 17 µM (inactive); in the experiment on SK-MEL-28, 32.4 µM (inactive); in the experiment on SNB-75, 29.7 µM (inactive); in the experiment with RXF 393 it was 16.4 µM (inactive); in the experiment on MDA-N, 26.5 µM (inactive). Also, the GI50 was 27.2 µM (inactive) in the experiment with COLO 205; 20.8 µM (inactive) in the experiment with SF-268; 17.1 µM (inactive) in the experiment with HT-29; 17.3 µM (inactive) in the experiment on PC-3; 24 µM (inactive) in the experiment on SR; > 100 µM (inactive) in the experiment on SF-295. In addition, the GI50 in the experiment with NCI-H23 is 19.6 µM (inactive); with SN12C, 21.6 µM (inactive).

Regarding `COc1cccc2c1C(=O)c1c(O)c3c(c(O)c1C2=O)C[C@@](O)(C(=O)CO)C[C@@H]3OC1CC(N(C)C)C(O)C(C)O1` (stereo partly specified), the GI50 with OVCAR-8 was < 0.0255 µM (active); in the experiment with Malme-3M it was < 0.0142 µM (active); in the experiment on HL-60 it was 0.1 µM (active); with HOP-92 it was 0.031 µM (active); in the experiment on HCC 2998, 0.0675 µM (active); in the experiment with HCT-15, 0.0182 µM. Also, the GI50 with UACC-257 is 0.0285 µM (active); in the experiment on NCI-H522, < 0.011 µM (active); in the experiment on SK-MEL-28, 0.0227 µM (active); in the experiment with SNB-75, 0.0155 µM (active); with RXF 393 it was 0.0138 µM (active); in the experiment with MDA-N, < 0.01 µM (active). In addition, the GI50 is < 0.01 µM (active) with COLO 205; < 0.0126 µM (active) with SF-268; < 0.01 µM (active) with HT-29; < 0.01 µM (active) in the experiment on PC-3; < 0.01 µM (active) in the experiment with SR; < 0.01 µM (active) with SF-295. Moreover, the figures for the GI50 with NCI-H23 and in the experiment on SN12C were 0.0137 µM (active) and 0.0189 µM (active), respectively.

On to `O=C(N/N=C/C=C/c1ccc([N+](=O)[O-])o1)c1ccc(C(=O)N/N=C/C=C/c2ccc([N+](=O)[O-])o2)cc1`, for which the GI50 was 13.2 µM (inactive) in the experiment with OVCAR-8; 12.7 µM (inactive) in the experiment with Malme-3M; 19.8 µM (inactive) in the experiment with HL-60; > 62.8 µM (inactive) with HOP-92; 12.9 µM (inactive) with HCC 2998; 37.4 µM in the experiment with HCT-15. Moreover, the GI50 in the experiment on NCI-H522 is 24.3 µM (inactive); with SK-MEL-28, 57 µM (inactive); in the experiment with SNB-75, > 100 µM (inactive); in the experiment on RXF 393 it was 25.9 µM (inactive); in the experiment with MDA-N it was 29.5 µM (inactive); in the experiment with COLO 205 it was 36 µM (inactive). For the same compound, the GI50 is 15.8 µM (inactive) in the experiment with SF-268; 72.9 µM (inactive) in the experiment on HT-29; > 30.5 µM (inactive) in the experiment with PC-3; 17.3 µM (inactive) in the experiment with SR; > 85.5 µM (inactive) in the experiment with SF-295; 49.8 µM (inactive) with NCI-H23. Besides, the GI50 with SN12C is > 37.9 µM (inactive).

With `O=C1Nc2ccccc2/C1=C1/Nc2ccccc2/C1=N\OCCOC1OCC(O)C(O)C1O` (stereo unspecified), the GI50 in the experiment on OVCAR-8 was > 100 µM (inactive); in the experiment on Malme-3M, > 100 µM (inactive); with HL-60 it was > 100 µM (inactive); with HOP-92, > 100 µM (inactive); in the experiment on HCC 2998 it was 25.5 µM (inactive); in the experiment on HCT-15, greater than 100 µM. For the same compound, the GI50 in the experiment with UACC-257 is > 100 µM (inactive); in the experiment with NCI-H522, > 100 µM (inactive); in the experiment with SK-MEL-28, > 100 µM (inactive); in the experiment with SNB-75 it was > 100 µM (inactive); with RXF 393 it was 50.6 µM (inactive); in the experiment on MDA-N it was > 100 µM (inactive). Moreover, the GI50 in the experiment on COLO 205 is 31 µM (inactive); in the experiment on SF-268, > 100 µM (inactive); with HT-29, > 100 µM (inactive); with PC-3, 27.2 µM (inactive); with SR it was 33 µM (inactive); with SF-295, > 100 µM (inactive). Further, the GI50 with NCI-H23 and in the experiment with SN12C was > 100 µM (inactive) in each case.

On to `COc1ccccc1NC(=O)C(=O)C(C#N)CC(C)(C)C=O` (stereo unspecified), for which the GI50 in the experiment with OVCAR-8 was > 100 µM (inactive); with Malme-3M, > 100 µM (inactive); with HL-60 it was > 100 µM (inactive); in the experiment with HOP-92, > 100 µM (inactive); with HCC 2998, > 100 µM (inactive); with HCT-15, greater than 100 µM. Also, the GI50 in the experiment on UACC-257, in the experiment on NCI-H522, with SK-MEL-28, in the experiment on SNB-75, with RXF 393 and in the experiment on MDA-N was > 100 µM (inactive) throughout. For the same compound, the GI50 with SF-268, with HT-29, in the experiment with PC-3, in the experiment with SR, in the experiment with SF-295 and in the experiment on NCI-H23 was > 100 µM (inactive) each time. In the experiment on SN12C, the GI50 is > 100 µM (inactive).

For `COc1cc(C2OC[C@@H]3C(=O)OC[C@H]23)cc(O)c1OC` (stereo partly specified), the GI50 in the experiment with OVCAR-8 was > 100 µM (inactive); with HL-60 it was > 100 µM (inactive); in the experiment on HOP-92 it was > 100 µM (inactive); in the experiment with HCC 2998, > 100 µM (inactive); in the experiment on HCT-15 it was greater than 100 µM; in the experiment on UACC-257 it was > 100 µM (inactive). The GI50 in the experiment with NCI-H522, in the experiment with SNB-75, in the experiment on RXF 393, with MDA-N, in the experiment on COLO 205 and in the experiment on SF-268 was > 100 µM (inactive) throughout. Further, the GI50 in the experiment with HT-29, in the experiment with PC-3, in the experiment with SR, with SF-295, in the experiment with NCI-H23 and in the experiment on SN12C was > 100 µM (inactive) each time.

Regarding `Fc1cc(C2=Nn3c(COc4ccccc4Cl)nnc3S/C2=C\c2ccc(Cl)cc2)c(Cl)cc1Cl`, the GI50 was 6.03 µM (inactive) with OVCAR-8; 4.49 µM (inactive) in the experiment on HL-60; 1.36 µM (inactive) in the experiment on HOP-92; 3.6 µM (inactive) with HCC 2998; 3.72 µM in the experiment with HCT-15; 21.8 µM (inactive) in the experiment with UACC-257. In addition, the GI50 in the experiment on NCI-H522 was 5.5 µM (inactive); in the experiment on SK-MEL-28, 3.54 µM (inactive); in the experiment with RXF 393 it was 9.89 µM (inactive); in the experiment on MDA-N, 2.23 µM (inactive); in the experiment with SF-268, 2.83 µM (inactive); in the experiment on HT-29 it was 3.18 µM (inactive). Further, the GI50 in the experiment on PC-3 is 12.3 µM (inactive); in the experiment with SR it was 4.39 µM (inactive); with SF-295, 4.28 µM (inactive); with NCI-H23 it was 1.96 µM (inactive).

For `CN(C)CCCN1C(=S)N(CCCN(C)C)c2c3cc(O)ccc3nc3c([N+](=O)[O-])ccc1c23`, the GI50 in the experiment with OVCAR-8 was 1.87 µM (inactive); with Malme-3M it was 6.7 µM (inactive); with HL-60, 3.09 µM (inactive); in the experiment on HOP-92, 2.38 µM (inactive); in the experiment with HCC 2998 it was 2.44 µM (inactive); in the experiment with HCT-15, 1.87 µM. The GI50 in the experiment with UACC-257 was 5.45 µM (inactive); in the experiment on NCI-H522, 1.32 µM (inactive); with SK-MEL-28, 2.58 µM (inactive); in the experiment on SNB-75, 3.37 µM (inactive); in the experiment on RXF 393, 3.03 µM (inactive); in the experiment on MDA-N it was 3.42 µM (inactive). Also, the GI50 with COLO 205 was 1.12 µM (inactive); in the experiment on SF-268, 1.53 µM (inactive); with HT-29, 0.757 µM (active); with PC-3, 2.05 µM (inactive); in the experiment on SR, 0.278 µM (active); with SF-295, 3.37 µM (inactive). For the same compound, the GI50 in the experiment with NCI-H23 was 3.41 µM (inactive); in the experiment with SN12C, 2.65 µM (inactive).

As to `CCCCN(CCCC)C1(c2cc3ccccc3s2)CCCCC1.[O-][Cl+3]([O-])([O-])O`, the GI50 with OVCAR-8 is 18.7 µM (inactive); in the experiment on HL-60, 17.7 µM (inactive); with HOP-92 it was 12.5 µM (inactive); in the experiment on HCC 2998, 14.1 µM (inactive); in the experiment with HCT-15, 15.5 µM; in the experiment with UACC-257 it was 18.1 µM (inactive). Further, the GI50 was 12.6 µM (inactive) in the experiment on NCI-H522; 18.4 µM (inactive) with SK-MEL-28; 16.8 µM (inactive) in the experiment with SNB-75; 16.6 µM (inactive) in the experiment with RXF 393; 15.4 µM (inactive) in the experiment with MDA-N; 14.9 µM (inactive) with COLO 205. In addition, the GI50 in the experiment with SF-268 was 19.2 µM (inactive); in the experiment with HT-29, 13.1 µM (inactive); in the experiment with PC-3, 17.9 µM (inactive); in the experiment on SR, 16.3 µM (inactive); in the experiment with SF-295, 13.2 µM (inactive); in the experiment with NCI-H23 it was 15.5 µM (inactive). For the same compound, the GI50 in the experiment on SN12C was 21.4 µM (inactive).

As for `O=C(Nc1ccc(Cl)cc1Cl)C1C(=O)OC2(CCCCC2)OC1=O`, the GI50 with OVCAR-8 was 5.7 µM (inactive); in the experiment with HL-60, 5.16 µM (inactive); in the experiment on HOP-92 it was 6.82 µM (inactive); with HCC 2998, 13 µM (inactive); in the experiment with HCT-15 it was 14.6 µM; in the experiment on UACC-257, 12.1 µM (inactive). The GI50 was 12 µM (inactive) in the experiment on NCI-H522; 5.77 µM (inactive) in the experiment on SK-MEL-28; 10.4 µM (inactive) with SNB-75; 5.36 µM (inactive) in the experiment on RXF 393; 15.7 µM (inactive) in the experiment on MDA-N; 10.4 µM (inactive) with COLO 205. Further, the GI50 with SF-268 is 14.6 µM (inactive); in the experiment with HT-29 it was 11.5 µM (inactive); in the experiment on PC-3, 3.45 µM (inactive); in the experiment on SR, 5.97 µM (inactive); in the experiment on SF-295, 2.92 µM (inactive); with NCI-H23 it was 4.4 µM (inactive). The GI50 with SN12C was 14.7 µM (inactive).

Consider `CC1(C)C2CCC3=C(CCC4(C)C5C[C@](C)(C(=O)O)CC[C@]5(C)CC[C@]34C)[C@@]2(C)CC[C@@H]1O` (stereo partly specified), for which the GI50 with Malme-3M was 17.1 µM (inactive); in the experiment with HL-60 it was 18.1 µM (inactive); in the experiment with HOP-92, 18.6 µM (inactive); in the experiment with HCC 2998 it was 64.9 µM (inactive); in the experiment on HCT-15, 16.5 µM; in the experiment on NCI-H522 it was 20 µM (inactive). Further, the GI50 in the experiment on SK-MEL-28 is 17.5 µM (inactive); in the experiment with SNB-75, 19 µM (inactive); in the experiment with RXF 393 it was 21.6 µM (inactive); in the experiment on MDA-N, 18.8 µM (inactive); with COLO 205, 38.3 µM (inactive); with SF-268, 31.2 µM (inactive). The GI50 in the experiment with HT-29 is 17.5 µM (inactive); with PC-3 it was 14.8 µM (inactive); with SR it was 30.8 µM (inactive); in the experiment on NCI-H23, 19.3 µM (inactive).
